Experimental data as given in US20170202822A1, “METHODS AND COMPOSITIONS FOR ENHANCING CANCER THERAPY” (THE SCRIPPS RESEARCH INSTITUTE, priority 2014, published 2017).

Legend:
[1] = tested on: MCF7 cells; experiment: Proliferation of MCF7 cells (shCtrl vs shNAMPT) by crystal violet staining; type: cell-based, human; conditions: for restoration of tamoxifen sensitivity: ER+/NAMPT-low MCF7 cells, 1, 5 or 10 mM NAM or 1 or 5 mM NR
Experimental: (§1) NAMPT knockdown (shNAMPT) reduced NAMPT (A) mRNA and (B) protein expression in MCF7 and T47D cells compared to controls transduced with scrambled shRNA (shCtrl). (A) NAMPT mRNA levels were analyzed by real time PCR and are expressed relative to beta-D-glucuronidase (GUSB) (***P<0.001) (n=3). (B) NAMPT protein expression was analyzed by Western blot analysis. Quantification of NAMPT protein was related to β-tubulin expression. […] Cellular NAD was analyzed in whole cell extracts of 1×10^6 cells. Metabolite concentrations were determined using a NAD+/NADH fluorescence detection kit (Cell Technology, Inc) and normalized to protein content. (D) Proliferation of control (shCtrl) vs NAMPT-knockdown (shNAMPT) MCF7 and T47D cells, untreated or treated with 0.001, 0.05, 0.1, 1, or 5 μM 4-hydroxytamoxifen (tamoxifen active metabolite) for 14 days. Proliferation was measured based on crystal violet staining and is expressed as % of proliferation of untreated cells. Groups were compared by unpaired two-tailed Student's t-test in n=4 (***P<0.001, **P<0.01 *P<0.05).
(A) Effect of nicotinamide treatment (10 mM NAM) on proliferation of control (shCtrl) vs NAMPT-knockdown (shNAMPT) MCF7 and T47D cells exposed to 1 μM or 0.1 μM 4-hydroxytamoxifen (tamoxifen active metabolite) respectively for 14 days. Proliferation was measured based on crystal violet staining and is expressed as % of proliferation of untreated cells (no 4-hydroxytamoxifen, no NAM). Groups were compared by unpaired two-tailed Student's t-test in n=4 (***P<0.001, **P<0.01 *P<0.05). (B) NAMPT KD cells present reduced absolute levels of NAD′ and nicotinamide treatment induces NAD^+ and NADH levels in both control (CT) or NAMPT KD (shNAMPT) breast cancer cells. NAD^+ and NADH were analyzed independently in whole cell extracts of 1×10^6 cells. Metabolite concentrations were determined using a NAD^+/NADH fluorescence detection kit (Cell Technology, Inc). (C) Distribution of ERα in MCF7 shCT or shNAMPT cells, measured after 7 days of cell treatment with 10 mM nicotinamide in EMEM medium, supplemented with 10% FBS. ERα localization was detected by immunofluorescence using anti-ERα clone SP1 (Thermo Fisher). Nuclei were detected by DAPI staining. Representative images are shown.
Nicotinamide riboside (NR) was more efficient than nicotinamide in blocking low-NAMPT-induced tamoxifen resistance. Proliferation of control (shCT) vs NAMPT-knockdown (shNAMPT) MCF7 cells treated with 1 or 5 μM 4-hydroxytamoxifen (tamoxifen active metabolite) for 7 days with or without (A) 1, 5 or 10 mM nicotinamide (NAM) or (B) 1 or 5 mM nicotinamide riboside (NR). Proliferation was measured based on crystal violet staining and is expressed as % of proliferation of untreated cells (no 4-hydroxytamoxifen). Groups were compared by unpaired two-tailed Student's t-test in n=4 (***P<0.001, **P<0.01 *P<0.05).

[2] = tested on: MCF7 cells; experiment: Growth of MCF7 cells in estrogen-free, phenol red-free medium, crystal violet staining; type: cell-based, human; conditions: for proliferation with 4-hydroxytamoxifen: 10 nM E2 + 1 μM 4-hydroxytamoxifen; for sensitization to tamoxifen's antiproliferative effects: 1 μM 4-hydroxytamoxifen
Experimental: (A) Growth of control (shCtrl) vs NAMPT knockdown (shNAMPT) MCF7 cells cultured for 7 days in EMEM medium supplemented with 10% FBS, or in phenol red-free EMEM supplemented with 10% charcoal-stripped estrogen-free FBS. Growth was measured by crystal violet staining after 7 days in culture. Groups were compared by unpaired two-tailed Student's t-test in n=3 (***P<0.001). (B) Growth of control (shCtrl) vs NAMPT knockdown (shNAMPT) MCF7 cells cultured in estrogen-free, phenol red-freeEMEM medium supplemented with 10% charcoal-stripped FBS. […] Growth was measured by crystal violet staining after 7 days in culture. Groups were compared by unpaired two-tailed Student's t-test in n=3 (*P<0.05,[…],***P<0.001). (C) Changes in NAD^+ levels impact the subcellular localization of ERα. […] Estrogen starvation and treatment were performed in phenol red-free EMEM supplemented with 10% charcoal-stripped FBS. ERα was detected by immunofluorescence using Pierce anti-ERα antibody (MA1-39539). Representative images are shown for all conditions.
To further analyze the regulatory role of NAMPT and the NAD^+ salvage pathway in estrogen-dependent growth and tamoxifen treatment, we first analyzed the capacity of MCF7 variant cells to grow in estrogen-free media. […] Importantly, low NAMPT expressing MCF7 cells (shNAMPT) had the capacity to proliferate even in the absence of estrogens (FIG. 6A). […] Furthermore, NAM treatment sensitized shCT and re-sensitized shNAMPT cells to tamoxifen's antiproliferative effects (FIG. 6B). In FIG. 4C, we analyzed the ERα localization in MCF7 cells when the cells were cultured in EMEM medium supplemented with 10% FBS, serum that contain hormones and growth factors that modulate ERα localization independently of the presence of estrogens (Muriel Le Romancer et al., Endocrine Reviews, October 2011, 32(5):597-622). In order to deeply analyze the role of NAMPT and NAM treatment on modulating ligand-dependent ERα nuclear localization, we starved the cells from any growth factor and hormones including estrogens for 72 hours by growing them in phenol red-free EMEM/10% charcoal-stripped FBS. Then, breast cancer cells were cultured for 24 hours with or without 10 nM E2, or with 10 nM E2 plus 10 mM NAM. […] In the absence of estrogens, ERα was distributed in the cytoplasm of control cells while in shNAMPT expressing cells ERα was concentrated in the nuclei.

[3] = tested on: T47D cells; experiment: Proliferation of T47D cells (shCtrl vs shNAMPT) by crystal violet staining; type: cell-based, human; conditions: 14 days
Experimental: as §1, with “(D) Proliferation of control (shCtrl) vs NAMPT-knockdown (shNAMPT) MCF7 and T47D cells, untreated or treated with 0.001, 0.05, 0.1, 1, or 5 μM 4-hydroxytamoxifen (tamoxifen active metabolite) for 14 days.” left out, “Groups were compared by unpaired two-tailed Student's t-test in n=4 (***P<0.001, **P<0.01 *P<0.05).” left out
(§2) (A) Effect of nicotinamide treatment (10 mM NAM) on proliferation of control (shCtrl) vs NAMPT-knockdown (shNAMPT) MCF7 and T47D cells exposed to 1 μM or 0.1 μM 4-hydroxytamoxifen (tamoxifen active metabolite) respectively for 14 days. Proliferation was measured based on crystal violet staining and is expressed as % of proliferation of untreated cells (no 4-hydroxytamoxifen, no NAM). […] NAD^+ and NADH were analyzed independently in whole cell extracts of 1×10^6 cells. Metabolite concentrations were determined using a NAD^+/NADH fluorescence detection kit (Cell Technology, Inc). […] Nuclei were detected by DAPI staining. […]

[4] = tested on: MDA-MB-231 cells; experiment: Proliferation of triple negative MDA-MB-231 cells by crystal violet staining; type: cell-based, human; conditions: 10 mM NAM, 0.5, 1 or 5 μM 4-hydroxytamoxifen, 14 days
Experimental: Proliferation of triple negative breast MDA-MB-231 cells, untreated or treated with 0.5, 1 or 5 μM 4-hydroxytamoxifen (tamoxifen active metabolite) for 14 days, with or without treatment with 10 mM nicotinamide (NAM). Proliferation was measured based on crystal violet staining and is expressed as % of proliferation of untreated cells (no 4-hydroxytamoxifen, no NAM). Groups were compared by unpaired two-tailed Student's t-test in n=3 (**P<0.01).

[5] = tested on: ERα
[6] = tested on: cellular NAD^+; experiment: Cellular NAD+ in whole cell extracts, NAD+/NADH fluorescence detection kit; type: cell-based, human; conditions: MCF7 cells expressing basal or low NAMPT levels
Experimental: as §1, with “(D) Proliferation of control (shCtrl) vs NAMPT-knockdown (shNAMPT) MCF7 and T47D cells, untreated or treated with 0.001, 0.05, 0.1, 1, or 5 μM 4-hydroxytamoxifen (tamoxifen active metabolite) for 14 days.” left out, “Groups were compared by unpaired two-tailed Student's t-test in n=4 (***P<0.001, **P<0.01 *P<0.05).” left out
as §2

[7] = 1 or 5 μM 4-hydroxytamoxifen, 7 days
[8] = MCF7 shNAMPT, 10 mM NAM, 7 days

Compound: 4-hydroxytamoxifen
- anti-proliferative efficacy of 4-hydroxytamoxifen on reduction of NAMPT expression ([1]; MCF7 shNAMPT vs shCtrl, 0.001-5 μM, 14 days): dramatically reduced the anti-proliferative efficacy
- proliferation with 4-hydroxytamoxifen ([2]; MCF7 shCT, 7 days): able to reduce proliferation
- proliferation with 4-hydroxytamoxifen ([2]; MCF7 shNAMPT, 7 days): not in shNAMPT
- anti-proliferative efficacy of 4-hydroxytamoxifen on reduction of NAMPT expression ([3]; T47D shNAMPT vs shCtrl, 0.001-5 μM): dramatically reduced the anti-proliferative efficacy

Compound: C[C@]12CC[C@@H]3c4ccc(O)cc4CC[C@H]3[C@@H]1CC[C@@H]2O [17-β-estradiol]
- proliferation with 17-β-estradiol ([2]; MCF7 shCT, 10 nM E2, 7 days, estrogen-free medium): induced proliferation

Compound: NC(=O)c1cccnc1 [NAM, nicotinamide]
- sensitization to tamoxifen-induced antiproliferative effects [4]: sensitized MDA-MB-231 to tamoxifen-induced antiproliferative effects
- restoration of tamoxifen sensitivity [1, 7]: restore tamoxifen sensitivity
- effect of NAM on anti-proliferative efficacy of 4-hydroxytamoxifen ([1]; MCF7 shCtrl and shNAMPT, 10 mM NAM, 1 μM 4-hydroxytamoxifen, 14 days): enhanced the anti-proliferative efficacy of 4-hydroxytamoxifen
- sensitization to tamoxifen's antiproliferative effects ([2]; MCF7 shCT, 10 mM NAM, 7 days): sensitized
- estrogen-induced proliferation ([2]; MCF7 shCT, 10 mM NAM, 7 days): dramatically inhibited
- sensitization to tamoxifen's antiproliferative effects [2, 8]: re-sensitized
- estrogen-independent growth [2, 8]: dramatically inhibited
- ERα nuclear localization with NAM ([5]; MCF7 control and shNAMPT, estrogen starved 72 h, 10 nM E2 plus 10 mM NAM, 24 h): inhibited ERα nuclear localization
- ERα expression and nuclear localization ([5]; MCF7 shCT or shNAMPT, 10 mM nicotinamide, 7 days, EMEM with 10% FBS): do not affect estrogen receptor alpha (ERα) expression and nuclear localization
- effect of NAM on anti-proliferative efficacy of 4-hydroxytamoxifen ([3]; T47D shCtrl and shNAMPT, 10 mM NAM, 0.1 μM 4-hydroxytamoxifen): enhanced the anti-proliferative efficacy of 4-hydroxytamoxifen
- NAD+ levels after NAM treatment [6]: induced significantly NAD^+ levels

Compound: NC(=O)c1ccc[n+]([C@@H]2O[C@H](CO)[C@@H](O)[C@H]2O)c1 [nicotinamide riboside]
- activity in restoring Tamoxifen sensitivity compared with NAM ([1]; ER+/NAMPT low (shNAMPT) MCF7 cells, 1 or 5 mM NR, 1 or 5 μM 4-hydroxytamoxifen, 7 days): more potent activity than NAM
- restoration of tamoxifen sensitivity [1, 7]: restore tamoxifen sensitivity
